The source of these data is patent EP3800188A1, “SUBSTITUTED PYRAZOLOPYRIMIDINES AS IRAK4 INHIBITORS” (Bayer AG, priority 2019, dated 2021).

Molecules are shown by their SMILES.

For this assay, the target named is T1, human IRAK4 (Homo sapiens, UniProt Q9NWZ3).
T1 construct: GST (N); made in house; host or cells: baculovirus-infected Hi5 (BTI-TN-5B1-4) insect cells
T1 sequence (Q9NWZ3 1-460): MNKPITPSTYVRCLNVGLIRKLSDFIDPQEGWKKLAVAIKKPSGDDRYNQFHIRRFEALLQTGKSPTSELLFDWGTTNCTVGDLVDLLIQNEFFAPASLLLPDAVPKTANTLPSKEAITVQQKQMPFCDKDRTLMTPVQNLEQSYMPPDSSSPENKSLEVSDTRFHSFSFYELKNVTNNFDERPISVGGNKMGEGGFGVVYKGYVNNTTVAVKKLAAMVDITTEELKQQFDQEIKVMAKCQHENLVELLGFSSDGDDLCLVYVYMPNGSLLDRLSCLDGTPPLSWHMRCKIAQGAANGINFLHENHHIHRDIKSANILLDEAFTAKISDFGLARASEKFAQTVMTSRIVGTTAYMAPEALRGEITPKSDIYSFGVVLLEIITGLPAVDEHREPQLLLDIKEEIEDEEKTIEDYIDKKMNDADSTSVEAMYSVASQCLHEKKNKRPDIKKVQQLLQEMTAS
Put plainly: Human IRAK4 kinase activity inhibition assay (IRAK4 TR-FRET assay). The assay is classed as biochemical. Particulars: 1 mM ATP, GST-human IRAK4, average or median values. An outline of the steps:
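Signal was the 665/620 nm emission ratio from a europium anti-mouse-IgG, anti-phosphoserine antibody and streptavidin-XL665 complex formed over 1 h at 22°C. It was scaled between no-enzyme (100%) and no-compound (0%) wells. Beforehand, compounds (20 µM down to 0.073 nM, 11 points) sat 15 min with roughly 0.2 nM insect-cell-expressed GST-human IRAK4 before phosphorylation of a biotinylated peptide substrate.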
Take `CC(C)(O)C1CCN(c2nc(N[C@H]3CCCNC3=O)nc3c2cnn3-c2cccc(C(F)(F)F)c2)CC1` [Example I-11-1, (3S)-3-({4-[4-(2-hydroxypropan-2-yl)piperidin-1-yl]-1-[3-(trifluoromethyl)phenyl]-1H-pyrazolo[3,4-d]pyrimidin-6-yl}amino)piperidin-2-one]: the IC50 worked out at 139 nM.
In the case of `CCS(=O)(=O)N1CC(Nc2nc(N3CC(N4CCOCC4)C3)c3cnn(-c4cccc(C(F)(F)F)c4)c3n2)C1` [Example I-81, N-[1-(ethylsulfonyl)azetidin-3-yl]-4-[3-(morpholin-4-yl)azetidin-1-yl]-1-[3-(trifluoromethyl)phenyl]-1H-pyrazolo[3,4-d]pyrimidin-6-amine] it was 83.2 nM; in that of `CC(C)(C(=O)O)C1CN(c2nc(NC3CCS(=O)(=O)CC3)nc3c2cnn3-c2cccc(C(F)F)c2)C1` [II-26, 2-(1-{1-[3-(difluoromethyl)phenyl]-6-[(1,1-dioxidotetrahydro-2H-thiopyran-4-yl)amino]-1H-pyrazolo[3,4-d]pyrimidin-4-yl}azetidin-3-yl)-2-methylpropanoic acid], 73.6 nM.
Regarding `CC(C)(O)CC1CCN(c2nc(N[C@@H]3CNC(=O)C3)nc3c2cnn3-c2cccc(C(F)(F)F)c2)CC1` [Example I-24, (4S)-4-({4-[4-(2-hydroxy-2-methylpropyl)piperidin-1-yl]-1-[3-(trifluoromethyl)phenyl]-1H-pyrazolo[3,4-d]pyrimidin-6-yl}amino)pyrrolidin-2-one], inhibition was half-maximal at 7.08 nM (IC50).
As to `O=S1(=O)CC[C@H](Nc2nc(N3CC(N4CCOCC4)C3)c3cnn(-c4cccc(C(F)F)c4)c3n2)C1` [II-3, 1-[3-(difluoromethyl)phenyl]-N-[(3S)-1,1-dioxidotetrahydrothiophen-3-yl]-4-[3-(morpholin-4-yl)azetidin-1-yl]-1H-pyrazolo[3,4-d]pyrimidin-6-amine], inhibition was half-maximal at 24.8 nM (IC50).
In the case of `CC(C)(O)C1CCN(c2nc(N[C@@H]3CNC[C@H]3F)nc3c2cnn3-c2cccc(C(F)(F)F)c2)CC1` (relative stereo) [Example I-65, 2-[1-(6-{[rel-(3R,4R)-4-fluoropyrrolidin-3-yl]amino}-1-[3-(trifluoromethyl)phenyl]-1H-pyrazolo[3,4-d]pyrimidin-4-yl)piperidin-4-yl]propan-2-ol] it was 15.6 nM; in that of `O[C@H]1C[C@@H](Nc2nc(N3CC(N4CCC(F)(F)C4)C3)c3cnn(-c4cccc(C(F)(F)F)c4)c3n2)C1` [Example I-118, cis-3-({4-[3-(3,3-difluoropyrrolidin-1-yl)azetidin-1-yl]-1-[3-(trifluoromethyl)phenyl]-1H-pyrazolo[3,4-d]pyrimidin-6-yl}amino)cyclobutanol], 5.13 nM.
`CC1(O)CCN(C2CN(c3nc(NC4CCS(=O)(=O)CC4)nc4c3cnn4-c3cccc(C(F)(F)F)c3)C2)CC1` [Example I-80, 1-(1-{6-[(1,1-dioxidotetrahydro-2H-thiopyran-4-yl)amino]-1-[3-(trifluoromethyl)phenyl]-1H-pyrazolo[3,4-d]pyrimidin-4-yl}azetidin-3-yl)-4-methylpiperidin-4-ol] yielded a concentration for half-maximal inhibition (IC50) of 11.4 nM.
In the case of `CC(C)(O)C1CCN(c2nc(N[C@H]3CCNC3=O)nc3c2cnn3-c2cccc(C(F)(F)F)c2)CC1` [Example I-12, (3S)-3-({4-[4-(2-hydroxypropan-2-yl)piperidin-1-yl]-1-[3-(trifluoromethyl)phenyl]-1H-pyrazolo[3,4-d]pyrimidin-6-yl}amino)pyrrolidin-2-one] it was 51.2 nM.
In the case of `O=C(O)CC1CN(c2nc(NC3CCS(=O)(=O)CC3)nc3c2cnn3-c2cccc(C(F)F)c2)C1` [II-9, (1-{1-[3-(difluoromethyl)phenyl]-6-[(1,1-dioxidotetrahydro-2H-thiopyran-4-yl)amino]-1H-pyrazolo[3,4-d]pyrimidin-4-yl}azetidin-3-yl)acetic acid] it was 84.9 nM.
The figure for `CN1CC[C@H](Nc2nc(N3CC(CS(C)(=O)=O)C3)c3cnn(-c4cccc(C(F)(F)F)c4)c3n2)C1` [Example I-36, N-[(3S)-1-methylpyrrolidin-3-yl]-4-{3-[(methylsulfonyl)methyl]azetidin-1-yl}-1-[3-(trifluoromethyl)phenyl]-1H-pyrazolo[3,4-d]pyrimidin-6-amine] is 45 nM; for `CC1(O)CCN(C2CN(c3nc(N[C@H]4C[C@](C)(O)C4)nc4c3cnn4-c3cccc(C(F)(F)F)c3)C2)CC1` [Example I-110, 1-(1-{6-[(trans-3-hydroxy-3-methylcyclobutyl)amino]-1-[3-(trifluoromethyl)phenyl]-1H-pyrazolo[3,4-d]pyrimidin-4-yl}azetidin-3-yl)-4-methylpiperidin-4-ol] it is 11.8 nM.
The compound `O=S1(=O)CCN(C2CN(c3nc(NC4CC4)nc4c3cnn4-c3cccc(C(F)(F)F)c3)C2)CC1` [Example I-53, N-cyclopropyl-4-[3-(1,1-dioxidothiomorpholin-4-yl)azetidin-1-yl]-1-[3-(trifluoromethyl)-phenyl]-1H-pyrazolo[3,4-d]pyrimidin-6-amine] had an IC50 of 99.8 nM.
For the compound `C[C@]1(O)CCN(c2nc(N[C@H]3C[C@@H](O)C3)nc3c2cnn3-c2cccc(C(F)(F)F)c2)C1` [Example I-124, (3S)-1-(6-{[(1s,3R)-3-hydroxycyclobutyl]amino}-1-[3-(trifluoromethyl)phenyl]-1H-pyrazolo[3,4-d]pyrimidin-4-yl)-3-methylpyrrolidin-3-ol], the concentration for half-maximal inhibition (IC50) came to 22.5 nM.
Regarding `CC(C)(O)C1CCN(c2nc(N[C@H]3CCC(=O)NC3)nc3c2cnn3-c2cccc(C(F)(F)F)c2)CC1` [Example I-7-2, (5S)-5-({4-[4-(2-hydroxypropan-2-yl)piperidin-1-yl]-1-[3-(trifluoromethyl)phenyl]-1H-pyrazolo[3,4-d]pyrimidin-6-yl}amino)piperidin-2-one], inhibition was half-maximal at 33.8 nM (IC50).
With `O=S1(=O)CCN(C2CN(c3nc(N[C@@H]4CCOC4)nc4c3cnn4-c3cccc(C(F)(F)F)c3)C2)CC1` [Example I-26-1, 4-[3-(1,1-dioxidothiomorpholin-4-yl)azetidin-1-yl]-N-[(3R)-tetrahydrofuran-3-yl]-1-[3-(trifluoromethyl)phenyl]-1H-pyrazolo[3,4-d]pyrimidin-6-amine], the concentration for half-maximal inhibition (IC50) is 37.3 nM.
In the case of `O[C@H]1CN(c2nc(N[C@H]3C[C@H](O)C3)nc3c2cnn3-c2cccc(C(F)(F)F)c2)C[C@@H]1F` [Example I-96, (3S,4S)-4-fluoro-1-(6-{[(1r,3S)-3-hydroxycyclobutyl]amino}-1-[3-(trifluoromethyl)-phenyl]-1H-pyrazolo[3,4-d]pyrimidin-4-yl)pyrrolidin-3-ol] it was 8.1 nM; in that of `CS(=O)(=O)[C@H]1C[C@H](Nc2nc(N3C[C@H](O)[C@@H](F)C3)c3cnn(-c4cccc(OC(F)F)c4)c3n2)C1` [IV-5, (3S,4S)-1-(1-[3-(difluoromethoxy)phenyl]-6-{[trans-3-(methylsulfonyl)cyclobutyl]amino}-1H-pyrazolo[3,4-d]pyrimidin-4-yl)-4-fluoropyrrolidin-3-ol], 11.2 nM.
`CC(C)(O)C1CCN(c2nc(N[C@@H]3CNC(=O)C3)nc3c2cnn3-c2cccc(OC(F)(F)F)c2)CC1` [III-1, (4S)-4-({4-[4-(2-hydroxypropan-2-yl)piperidin-1-yl]-1-[3-(trifluoromethoxy)phenyl]-1H-pyrazolo[3,4-d]pyrimidin-6-yl}amino)pyrrolidin-2-one] yielded a concentration for half-maximal inhibition (IC50) of 19.1 nM.
Turning to `CS(=O)(=O)[C@H]1C[C@H](Nc2nc(N3CCC(O)CC3)c3cnn(-c4cccc(C(F)(F)F)c4)c3n2)C1` [Example I-93, 1-(6-{[trans-3-(methylsulfonyl)cyclobutyl]amino}-1-[3-(trifluoromethyl)phenyl]-1H-pyrazolo[3,4-d]pyrimidin-4-yl)piperidin-4-ol], the half-maximal inhibitory concentration (IC50) turned out to be 11.2 nM.
On to `CC(C)(O)C1CCN(c2nc(N[C@@H]3CCC(=O)NC3)nc3c2cnn3-c2cccc(C(F)(F)F)c2)CC1` [Example I-7-1, (5R)-5-({4-[4-(2-hydroxypropan-2-yl)piperidin-1-yl]-1-[3-(trifluoromethyl)phenyl]-1H-pyrazolo[3,4-d]pyrimidin-6-yl}amino)piperidin-2-one], for which it took 11.4 nM to reach half-maximal inhibition (IC50).
The figure for `CC(C)(O)C1CN(c2nc(N[C@H]3C[C@@H](O)C3)nc3c2cnn3-c2cccc(C(F)(F)F)c2)C1` [Example I-116, cis-3-({4-[3-(2-hydroxypropan-2-yl)azetidin-1-yl]-1-[3-(trifluoromethyl)phenyl]-1H-pyrazolo[3,4-d]pyrimidin-6-yl}amino)cyclobutanol] is 16.8 nM.
Turning to `C[C@@]1(O)CCN(c2nc(N[C@H]3C[C@H](S(C)(=O)=O)C3)nc3c2cnn3-c2cccc(C(F)(F)F)c2)C1` [Example I-103, (3R)-3-methyl-1-(6-{[(1r,3R)-3-(methylsulfonyl)cyclobutyl]amino}-1-[3-(trifluoromethyl)-phenyl]-1H-pyrazolo[3,4-d]pyrimidin-4-yl)pyrrolidin-3-ol], the IC50 came to 11.4 nM.
Take `CS(=O)(=O)C1CN(c2nc(N[C@H]3C[C@](C)(N)C3)nc3c2cnn3-c2cccc(C(F)(F)F)c2)C1` [Example I-71, trans-1-methyl-N^3-{4-[3-(methylsulfonyl)azetidin-1-yl]-1-[3-(trifluoromethyl)phenyl]-1H-pyrazolo[3,4-d]pyrimidin-6-yl}cyclobutane-1,3-diamine]: the IC50 was 15.3 nM.

In general, IC50 refers to the midpoint of a concentration-inhibition curve. The low end stands for inhibition by little substance, the high end for a need for much substance.
